The text below walks through data of paper PMC10219169, “Thiopurines Analogues with Additional Ring: Synthesis, Spectroscopic Properties, and Anticancer Potency” (International Journal of Molecular Sciences, 2023).

Like-named read-outs stand apart in the source and are kept apart here.

Data set [1] in a line: pKa determination by spectrophotometric method. It is filed as physicochemical. As to conditions: for fraction existing in ionic form: at physiological pH (7.32–7.42); for pKa: spectrophotometric method, buffer solutions of different pH. As to the method:
The synthesized compounds, due to their structure, can be hydrogen donors as well as acceptors. Depending on the pH, they can exist in protonated or deprotonated forms. In order to establish which form of the new tricyclic thiopurine derivatives is favored at neutral pH (the conditions under which the in vitro tests will be carried out), their pKa values were determined by spectrophotometric methods (see Table 1 and the Experimental Section). […] This means that at physiological pH (7.32–7.42), about 6% of TEGuo/TEGua exist in ionic form, while 6-Me-TEGuo/6-Me-TEGua only about 4%.
UV-vis absorption spectra were recorded using a Cary 100 spectrophotometer scanning from 800 to 200 nm with 1 nm increments in 1 cm × 1 cm quartz cells. Emission spectra were taken in 1 cm × 1 cm quartz cells on a JASCO FP–8300 spectrofluorometer (excitation and emission slits 5 nm, scan speed 500 nm min^−1) for solutions with absorbance at the excitation wavelength less than 0.1. The fluorescence quantum yields were determined using 10-methylacridinium cation in water (Φ = 1.0) as a standard. The dissociation constants were determined by the spectrophotometric method: in a first step, buffer solutions of different pH were prepared. The pH of solutions was determined by a Mettler Toledo F20 FiveEasy pH meter equipped with a pH electrode LE438 3 in 1 (Mettler Toledo). In the second step, equal volumes of a substance dissolved in water (10 μL) were added to the buffer solution (3 mL). The spectra were recorded with 1 nm resolution over the range from 220 to 550 nm to obtain different spectra around the maximum λ for each compound studied. The purity of all samples was monitored by an HPLC method. HPLC measurements were performed using an Agilent 1200 Rapid Resolution UHPLC system equipped with a reversed-phase column (Eclipse Plus C18, […], 4.6 × 250 mm). A gradient of acetonitrile in water was used as an eluent. The water was doubly distilled and purified using a Milli-Q system (Millipore, Bedford, MA, USA). The fluorescence lifetime measurements were recorded using a Fluorescence Lifetime Spectrometer (FluoTime 300 from PicoQuant) with a time-correlated single-photon counting detection system equipped with a 378 nm laser as its excitation source. All experiments were carried out in a standard quartz cell (1 cm × 1 cm).

Data set [2] is described as follows: n-octanol/phosphate buffer pH 7.4 partition coefficient (lipophilicity determination). It is filed as physicochemical. As to conditions: 1-octanol/phosphate buffer pH 7.4, read-out: Experimental log Po/w (pH 7.4). How it is done:
The key parameter in drug design and one of the most important properties for all the pharmacokinetic rules is the octanol/water partition coefficient, log Po/w. It is defined as the partition coefficient ratio of a compound between the hydrophobic and hydrophilic phases and corresponds to lipophilicity, which describes drug interactions with membranes and the possibility of their transport across the membrane into the cell. The values of log Po/w were determined experimentally for all the tested compounds and compared with the values theoretically estimated on the SwissADME [23] webserver.
The partition coefficients of the tested compounds were determined for n-octanol/phosphate buffer pH 7.4 at 25 °C and 37 °C. The initial concentrations of the compounds (1.0 × 10^−5 M and 2.0 × 10^−5 M) were measured spectrophotometrically, according to the Beer–Lambert law. The absorbances were recorded at λmax of the appropriate compound against a suitable phosphate buffer blank. A quantity of 1 mL of the solution of the tested compound in the phosphate buffer at pH 7.4 and 1 mL of n-octanol were placed in 2 mL Eppendorf tubes. The samples were shaken manually (2 min), vortexed (5 min), and incubated for 5 h at 25 °C or 37 °C. Then, the tubes were centrifuged (2 min, 10,000 rpm). Both layers were carefully separated, and the absorbances were measured for the aqueous layers at a suitable λmax against the blank of the phosphate buffer at a suitable pH. The given logPo/w values are the mean of three independent experiments (one experiment: 3 samples for 2 concentrations of each compound).

Another data set deals with HeLa cells. As to the kind of experiment: CellTiter-Glo cell viability assay (24 h), HeLa. It is filed as cell-based, human. The following applies: for IC50: CellTiter-Glo; for reduction of HeLa cell viability: c = 80 μM; for selectivity index (SI): SI = IC50 normal cell (NIH/3T3) / IC50 cancerous cell (HeLa). As to the method: (§1) The compounds in this work were tested for their in vitro inhibitory effect on the viability of the HeLa (cancerous) cell line using the CellTiter-Glo® 2.0 cell viability assay (24 h). In addition, the mouse fibroblast NIH/3T3 cell line was used to assess the effects of the compounds on healthy normal cells. […] The 6TG was used as a standard in all tests conducted. The graph of percentage cell viability (y axis) against concentrations of the tested compounds (x axis) and concentration-viability curves with IC50 values from dose-response studies are presented in Figure 4 and Figure 5, respectively.
(§2) The cytotoxicity of the synthesized compounds was tested using cell lines of cervical cancer (HeLa) and mouse fibroblasts (NIH/3T3). Both cell lines were cultured in Dulbecco′s Modified Eagle′s medium (31053, Sigma-Aldrich-Gibco, Thermo Fisher Scientific, Waltham, MA, USA) supplemented with 10% fetal bovine serum (Biowest, Nuaillé, France), 1% Glutamax (Thermo Fisher Scientific, Waltham, MA, USA), and 1% Antibiotic-Antimycotic (Biowest) under standard culture conditions (95% humidity, 5% CO2, at 37 °C). For the purpose of cytotoxicity assays, cells (from both cell lines) were seeded at a density of ca. 5000 cells/well on a 96-well microplate (white, flat bottom), in 4 replicates. 6-Me-TEGuo, 6-Me-TEGua, TEGuo, TEGua, and 6-Me-TEG were tested for their potential cytotoxicity using the following concentrations: 160 (except 6-Me-TEG), 80, 40, 20, 10, 5, and 2.5 μM. Additionally, 6-thioguanine (6TG) in concentrations of 10, 7.5, 5, 2.5, 1.25, and 0.625 μM was tested. All assays included non-treated cells and cells treated with 10% DMSO as negative and positive controls, respectively. The cells were incubated for 24 h under standard culture conditions. Cytotoxicity was measured as cell viability with the CellTiter-Glo® Luminescent Cell Viability Assay (Promega, Madison, WI, USA) according to the manufacturer’s protocol. The microplate luminescence was measured using an Infinite® 200 PRO plate reader (Tecan, Männedorf, Switzerland). Then, the average luminescence of non-labeled cells was equated to 100%, and the remaining values were proportionally normalized. The IC50 values were calculated from the fitting curves using Origin 2022.
On the technique in general: Cellular ATP, detected with luciferase, serves as a proxy for viable cell number.

Another data set concerns NIH/3T3 cells. Put plainly: CellTiter-Glo cell viability assay (24 h), NIH/3T3. It is filed as cell-based. As to conditions: Mus musculus, NIH3T3, NIH/3T3, 24 h. As to the method:
as §1, §2

The nature of data set [3]: pKa* of singlet excited state from pH-dependent fluorescence emission. It is filed as physicochemical. As to conditions: determined from emission from the singlet excited state. As to the method: At pH 4.0, as was the case for the absorbance at 352 nm, the intensity and shape of the fluorescence signal were similar to those observed in water solution for all the compounds tested. However, in the case of basic pH, a two-fold increase in the emission intensity and a blueshift of the emission maximum were observed.
UV-vis absorption spectra were recorded using a Cary 100 spectrophotometer scanning from 800 to 200 nm with 1 nm increments in 1 cm × 1 cm quartz cells. Emission spectra were taken in 1 cm × 1 cm quartz cells on a JASCO FP–8300 spectrofluorometer (excitation and emission slits 5 nm, scan speed 500 nm min^−1) for solutions with absorbance at the excitation wavelength less than 0.1. The fluorescence quantum yields were determined using 10-methylacridinium cation in water (Φ = 1.0) as a standard. The dissociation constants were determined by the spectrophotometric method: in a first step, buffer solutions of different pH were prepared. The pH of solutions was determined by a Mettler Toledo F20 FiveEasy pH meter equipped with a pH electrode LE438 3 in 1 (Mettler Toledo). […] The spectra were recorded with 1 nm resolution over the range from 220 to 550 nm to obtain different spectra around the maximum λ for each compound studied. The purity of all samples was monitored by an HPLC method. […]

Where [4] appears, read: n-octanol/phosphate buffer pH 7.4, pH 7.4, 25 °C.
Where [5] appears, read: n-octanol/phosphate buffer pH 7.4, pH 7.4, 37 °C.

Broadly, the pKa is the pH at which an ionisable group is half protonated. Low values mean a group that gives up its proton readily, high ones a group that holds its proton tightly. One may read the IC50 as the concentration that inhibits the measured activity by half. Lower therefore signals greater potency in that assay. Take `Cc1cn2c(=S)c3nc[nH]c3nc2[nH]1` [6-Me-TEGua, 6-methyl-9-thio-1,N^2-ethenoguanine]: the “fraction existing in ionic form” value in data set [1] was “about 4%”. In data set [1], this compound returned a pKa of 8.8. The results for the logP at 5 h in data set [2] (setting [4]) and in data set [2] (setting [5]) were 0.75 and 0.7, respectively. Moreover, the IC50 is less than 100 µM in the data set with HeLa cells (HeLa, 24 h); 78.2 µM in the data set on HeLa cells (Homo sapiens, HeLa, 24 h); 51.6 µM with NIH/3T3 cells. The “reduction of HeLa cell viability” value in the data set on HeLa cells (HeLa, 24 h) is listed as “up to 57%”.
In the case of `S=c1c2nc[nH]c2nc2[nH]ccn12` [TEGua, 9-thio-1,N^2-ethenoguanine], the “fraction existing in ionic form” value in data set [1] was “about 6%”. The compound further showed a pKa in data set [1] of 8.6. The logP at 5 h in data set [2] (setting [4]) was 0.58; in data set [2] (setting [5]), 0.52. The IC50 in the data set with HeLa cells (Homo sapiens, HeLa, 24 h) is 137 µM; in the data set with NIH/3T3 cells it was 97.9 µM.
Consider `Cc1cn2c(=S)c3ncn([C@@H]4O[C@H](CO)[C@@H](O)[C@H]4O)c3nc2[nH]1` [6-Me-TEGuo, 6-methyl-9-thio-1,N^2-ethenoguanosine], for which the “fraction existing in ionic form” value in data set [1] is listed as “about 4%”. In data set [1], this compound had a pKa of 8.8. Besides, the figures for the logP at 5 h in data set [2] (setting [4]) and in data set [2] (setting [5]) were -0.61 and -0.67, respectively. In addition, the IC50 is less than 100 µM with HeLa cells (HeLa, 24 h); 55.8 µM in the data set on HeLa cells (Homo sapiens, HeLa, 24 h); 63.8 µM with NIH/3T3 cells. For the same compound, the “reduction of HeLa cell viability” value with HeLa cells (HeLa, 24 h) is “up to 42%”. For the same compound, the “selectivity index (SI)” value with HeLa cells was more than 1. Also, the “pKa* (singlet excited state)” value in data set [3] is 8.9.
With `Nc1nc2nc[nH]c2c(=S)[nH]1` [6TG, 6-thioguanine, reference compound], the “selectivity index (SI)” value in the data set on HeLa cells was more than 1.
Turning to `OC[C@H]1O[C@@H](n2cnc3c(=S)n4cc[nH]c4nc32)[C@H](O)[C@@H]1O` [TEGuo, 9-thio-1,N^2-ethenoguanosine], in data set [1], the “fraction existing in ionic form” value was “about 6%”. Besides, the pKa in data set [1] stood at 8.6. The logP at 5 h in data set [2] (setting [4]) is -0.89; in data set [2] (setting [5]) it was -0.96. Besides, the IC50 in the data set with HeLa cells (HeLa, 24 h) was less than 100 µM; with HeLa cells (Homo sapiens, HeLa, 24 h), 80.2 µM; in the data set with NIH/3T3 cells it was 83.6 µM. The “selectivity index (SI)” value in the data set on HeLa cells is reported as more than 1. For the same compound, the “pKa* (singlet excited state)” value in data set [3] was 8.7.
Take `CC(=O)OC[C@H]1O[C@@H](n2cnc3c(=S)n4cc(C)[nH]c4nc32)[C@H](OC(C)=O)[C@@H]1OC(C)=O` [6-Me-TEG, 2′,3′,5′-tri-O-acetyl-6-methyl-9-thio-1,N^2-ethenoguanosine]: the logP at 5 h turned out to be 0.8 in data set [2] (setting [4]) and 0.75 in data set [2] (setting [5]). In addition, in the data set on HeLa cells (HeLa, concentration range 2.5 μM to 80 μM, 24 h), the “effect on HeLa cell viability” value is reported as “no effect on HeLa cell viability was observed”.
